Like-named read-outs stand apart in the source and are kept apart here.
Experiments:
hCA II = molecular target: T1, hCA II (Homo sapiens, UniProt P00918); test: stopped-flow CO2 hydrase assay; format: biochemical
T1 construct: gene CA2
Source text: stopped-flow CO2 hydrase assay on hCA II

hCA XII = molecular target: T2, hCA XII (Homo sapiens, UniProt O43570); test: stopped-flow CO2 hydrase assay; format: biochemical
T2 construct: gene CA12

hCA I = molecular target: T3, hCA I (Homo sapiens, UniProt P00915); test: stopped-flow CO2 hydrase assay; format: biochemical
T3 construct: gene CA1
T3 sequence (P00915 2-261): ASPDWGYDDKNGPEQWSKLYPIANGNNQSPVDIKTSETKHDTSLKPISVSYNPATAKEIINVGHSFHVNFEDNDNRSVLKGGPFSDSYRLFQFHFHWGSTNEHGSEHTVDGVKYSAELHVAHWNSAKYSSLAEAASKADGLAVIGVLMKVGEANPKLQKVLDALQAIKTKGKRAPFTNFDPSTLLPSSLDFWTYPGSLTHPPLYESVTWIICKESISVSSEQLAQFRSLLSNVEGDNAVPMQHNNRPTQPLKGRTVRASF
Source text: stopped-flow CO2 hydrase assay on hCA I

hCA IX = molecular target: T4, hCA IX (Homo sapiens, UniProt Q16790); test: stopped-flow CO2 hydrase assay; format: biochemical
T4 construct: gene CA9

[1] = stopped-flow CO2 hydrase assay; format: biochemical, Homo sapiens; details: read-out: KI (nM)^a / hCA I
[2] = stopped-flow CO2 hydrase assay; format: biochemical, Homo sapiens; details: read-out: KI (nM)^a / hCA I; remark: listed apart in the source

T2 sequence (O43570 25-354): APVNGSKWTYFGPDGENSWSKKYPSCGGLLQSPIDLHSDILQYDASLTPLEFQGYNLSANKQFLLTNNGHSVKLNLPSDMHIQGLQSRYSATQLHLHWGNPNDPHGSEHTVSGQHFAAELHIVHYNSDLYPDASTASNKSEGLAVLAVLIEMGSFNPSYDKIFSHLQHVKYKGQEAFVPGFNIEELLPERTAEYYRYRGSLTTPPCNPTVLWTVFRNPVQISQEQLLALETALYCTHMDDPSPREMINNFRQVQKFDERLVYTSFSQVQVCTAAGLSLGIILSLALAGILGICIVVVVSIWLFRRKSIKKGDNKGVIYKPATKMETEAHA

Ki (hCA II) | Ki (hCA XII) | Ki (hCA I) | Ki (hCA IX; read-out: KI (nM)^a / hCA IX) | Ki [1] | Ki (hCA IX; read-out: KI (nM)^a / hCA I) | Ki [2] | Compound
653 nM | 57.5 nM | 4040 nM | 48.9 nM |  |  |  | NS(=O)(=O)c1cccc(NC(=O)Nc2nc3ccccc3s2)c1 [8b]
204 nM | 51.2 nM | 946 nM | 58.8 nM |  |  |  | NS(=O)(=O)c1ccc(CNC(=O)Nc2nc3ccccc3s2)cc1 [compound 10, 10]
54.1 nM | 29.3 nM | 362 nM | 31.5 nM |  |  |  | NS(=O)(=O)c1ccc(NC(=O)Nc2nc3ccccc3s2)cc1 [8c]
 |  | > 100000 nM |  | > 100000 nM | > 100000 nM | > 100000 nM | Cc1noc(NS(=O)(=O)c2ccc(NC(=O)Nc3nc4ccccc4s3)cc2)c1C [16b]
28.5 nM | 34.7 nM | 61.5 nM | 16.4 nM |  |  |  | NS(=O)(=O)c1ccc(CCNC(=O)Nc2nc3ccccc3s2)cc1 [compound 12, 12]
 | 32500 nM | > 100000 nM | 56100 nM |  |  | > 100000 nM | O=C(Nc1ccc(S(=O)(=O)Nc2nccs2)cc1)Nc1nc2ccccc2s1 [16a]
785 nM | 41.2 nM | 12600 nM | 65.3 nM |  |  |  | NS(=O)(=O)c1ccccc1NC(=O)Nc1nc2ccccc2s1 [8a]
75900 nM | 39900 nM | 68100 nM | 44600 nM |  |  |  | O=C(Nc1nc2ccccc2s1)Nc1ccccc1C(=O)O [14a]
9470 nM | 8540 nM | 11800 nM | 2410 nM |  |  |  | O=C(Nc1ccc(C(=O)O)cc1)Nc1nc2ccccc2s1 [14c]
94100 nM | 9140 nM | 82800 nM | 16300 nM |  |  |  | O=C(Nc1cccc(C(=O)O)c1)Nc1nc2ccccc2s1 [14b]

Source: PMC9518259, “Design and synthesis of benzothiazole-based SLC-0111 analogues as new inhibitors for the cancer-associated carbonic anhydrase isoforms IX and XII” (Journal of Enzyme Inhibition and Medicinal Chemistry, 2022)
